Results as given in patent US20220096664A1, “STABILIZED FORMULATIONS CONTAINING IODINATED CONTRAST AGENTS AND CYCLODEXTRINS” (Verrow Pharmaceuticals, Inc., priority 2012, published 2022).
Where two headings read alike, the source gives them in different places.

Legend:
[1] = type: physicochemical
Method: (§1) The lamps were switched on and the solutions irradiated for 18 to 24 hours for the ultraviolet (UV) lamps or 72 to 90 hours for the visible (VIS) light lamps. At the end of the selected irradiation time, the cuvettes were removed from the photolysis chamber and mixed by inversion 2-times. The caps were then removed and 40 microliter aliquots taken and diluted with 1 mL of an aqueous solution containing ˜0.9 mg/mL sodium thiosulfate. The thiosulfate solution converted any I2, IO3^−, and I3^− present in the solution tor such that total iodine species could be determined in one assay.
(§2) The diluted solutions were assayed by high pressure liquid chromatography (HPLC) using a 4.6×250 mm, C-18, 5 micron particle size, reversed phase column with detection at 280 nm for the contrast agent and 230 nm for the thiosulfate and the iodide ion (r). A mobile phase of 30:70 methanol:aqueous buffer (50 mM KH2PO4+7 mL/L 40% tetrabutyl ammonium hydroxide) at 0.75 mL/min was used for elution. Injection volume was 20 microliters. External standards were prepared containing each contrast agent, potassium iodide, and sodium thiosulfate solution and analyzed along with the irradiated samples. The results were reported as weight percentage iodide formed (mg iodide/mg contrast agent times 100).
(§3) Aqueous solutions were prepared containing 50 mM iodinated contrast agent, 10 mM tromethamine HCl buffer (TRIS), with and without sulfobutylether beta-cyclodextrin with an average degree of substitution-7 (SBE7-β-CD), or 2-hydroxypropyl beta-cyclodextrin with an average degree of substitution of ˜6.3 (HP6.3-β-CD) or ˜4.3 (HP4.3-β-CD). The iohexol solution was prepared by dissolving solid iohexol powder while the other solutions were prepared by diluting commercial formulated products and adding sufficient TRIS buffer to reach 10 mM. The pH of the solutions was adjusted to 7.4 with 0.1N hydrochloric acid.
Aliquots of the solutions were irradiated with visible light for 72 hours (0.52 million lux hours). Other aliquots were autoclaved for 20 minutes at 121° C., cooled to room temperature and then irradiated with ultraviolet light for 18 hours (119 watt hours/m2). The solutions were then processed, analyzed and reported as in Example 2, except that the chromatographic peaks of the contrast agents were evaluated at 300 nm for both samples and standards. […]
Aqueous formulations were prepared containing iodinated contrast agents at concentrations used commercially in medical procedures. Sulfobutylether-cyclodextrin, sodium salt, average degree of substitution ˜7 (SBE7CD) was added at varying agent:CD mole ratios. The formulations were placed in glass vials, sealed with rubber stoppers and aluminum crimps, and autoclaved at 121° C. for 20 minutes. Aliquots of the autoclaved solutions were exposed to UV light for 24 hours (159 watt hours/m^2 or VIS light for 72 hours (0.52 million lux hours) as in Example 2. The solutions were then processed, analyzed and reported as in Example 2, with the following two exceptions; 1) the chromatographic peaks of the contrast agents were evaluated at 300 nm for both samples and standards, and 2) only 20 microliter sample aliquots were taken and diluted for HPLC analysis due to the higher concentrations used in this study. Results of the study are presented in the table below along with the solution compositions.

[2] = type: physicochemical; settings: for Iodide formed: 50 mM agent, 10 mM TRIS, pH 7.4, autoclaved then UV 18 h; for percent change in iodide degradants, UV: 24 h; for percent change in iodide degradants, UV / percent change in iodide degradants, VIS: pH 7.1; for percent change in iodide degradants, VIS: 72 h
Method: as §1, §2, §3
Aliquots of the solutions were irradiated with visible light for 72 hours (0.52 million lux hours). Other aliquots were autoclaved for 20 minutes at 121° C., cooled to room temperature and then irradiated with ultraviolet light for 18 hours (119 watt hours/m2). The solutions were then processed, analyzed and reported as in Example 2, except that the chromatographic peaks of the contrast agents were evaluated at 300 nm for both samples and standards.
Aqueous solutions were prepared containing 50 mM iohexol, 0, 2.5, 5, 7.5, or 10 mM tromethamine HCl (TRIS) buffer, with and without 2.5 mM sulfobutylether beta-cyclodextrin with an average degree of substitution-7 (SBE7-β-CD). The pH of the solutions was adjusted to 7.4 with 0.1N hydrochloric acid and the solutions were transferred to glass vials. The vials were stoppered, crimp-capped and autoclaved for 20 minutes at 121° C. The pH of the autoclaved solutions was measured after the solutions were at room temperature.
Aliquots of the autoclaved solutions were irradiated with visible light for 72 hours (0.52 million lux hours) and other aliquots irradiated with ultraviolet light for 18 hours (119 watt hours/m2). The solutions were then processed, analyzed and reported as in Example 2, except that the chromatographic peak of the iohexol was evaluated at 300 nm for both samples and standards.
Aqueous formulations were prepared containing iodinated contrast agents at concentrations used commercially in medical procedures. Sulfobutylether-cyclodextrin, sodium salt, average degree of substitution ˜7 (SBE7CD) was added at varying agent:CD mole ratios. The formulations were placed in glass vials, sealed with rubber stoppers and aluminum crimps, and autoclaved at 121° C. for 20 minutes. […]

In the case of `O=C(NCC(O)CO)c1c(I)c(C(=O)NCC(O)CO)c(I)c(N(CCO)C(=O)CO)c1I` (centres unmarked) [Ioversol, ioversol], the “percent change in iodide degradants formed in the presence of the SCD” value ([1]; 20 min, 50 mM, pH 7.4) is reported as “(−30.8%)”, the “Iodide Formed, Autoclaved” value ([1]; Ioversol 160 mg I/mL, pH 7.1, agent:SBE7CD 1:0.05) is reported as 0.0241 wt % and the “Iodide Formed, Autoclaved” value ([1]; Ioversol 160 mg I/mL, pH 7.1, no SCD (1:0)) is reported as 0.0244 wt %. For the same molecule, the “Iodide Formed, Autoclaved” value ([1]; Ioversol 240 mg I/mL, pH 7.1, agent:SBE7CD 1:0.05) was 0.0162 wt %, the “Iodide Formed, Autoclaved” value ([1]; Ioversol 240 mg I/mL, pH 7.1, no SCD (1:0)) was 0.0160 wt % and the “Iodide Formed, Autoclaved” value ([1]; Ioversol 300 mg I/mL, pH 7.1, agent:SBE7CD 1:0.05) was 0.0129 wt %. For the same molecule, the “Iodide Formed, Autoclaved” value ([1]; Ioversol 300 mg I/mL, pH 7.1, no SCD (1:0)) was 0.0135 wt %, the “Iodide Formed, Autoclaved” value ([1]; Ioversol 320 mg I/mL, pH 7.1, agent:SBE7CD 1:0.05) was 0.0127 wt % and the “Iodide Formed, Autoclaved” value ([1]; Ioversol 320 mg I/mL, pH 7.1, no SCD (1:0)) was 0.0130 wt %. The “Iodide Formed, Autoclaved” value ([1]; Ioversol 350 mg I/mL, pH 7.1, agent:SBE7CD 1:0.05) was 0.0120 wt %, the “Iodide Formed, Autoclaved” value ([1]; Ioversol 350 mg I/mL, pH 7.1, no SCD (1:0)) was 0.0124 wt % and the Iodide formed ([2]; agent:SBE7-β-CD 1:0.1) was 0.545 wt %. The Iodide formed ([2]; no SCD (1:0)) was 0.665 wt %, the “percent change in iodide degradants formed in the presence of the SCD” value ([2]; 18 h, 50 mM, pH 7.4) was “(−18%)” and the “percent change in iodide degradants, UV” value ([2]; 160 mg I/mL) was “(−24.0%)”. For the same molecule, the “percent change in iodide degradants, UV” value ([2]; 240 mg I/mL) was “(−19.2%)”, the “percent change in iodide degradants, UV” value ([2]; 300 mg I/mL) was “(−17.2%)” and the “percent change in iodide degradants, UV” value ([2]; 320 mg I/mL) was “(−36.7%)”. For the same molecule, the “percent change in iodide degradants, UV” value ([2]; 350 mg I/mL) was “(−26.8%)”, the “percent change in iodide degradants, VIS” value ([2]; 160 mg I/mL) was “(−9.9%)” and the “percent change in iodide degradants, VIS” value ([2]; 240 mg I/mL) was “(−11.9%)”. The “percent change in iodide degradants, VIS” value ([2]; 300 mg I/mL) was “(−17.4%)”, the “percent change in iodide degradants, VIS” value ([2]; 320 mg I/mL) was “(−14.2%)” and the “percent change in iodide degradants, VIS” value ([2]; 350 mg I/mL) was “(−11.7%)”. The “Iodide Formed, UV” value ([2]; Ioversol 160 mg I/mL, pH 7.1, agent:SBE7CD 1:0.05, autoclaved then UV 24 h) was 0.171 wt %, the “Iodide Formed, VIS” value ([2]; Ioversol 160 mg I/mL, pH 7.1, agent:SBE7CD 1:0.05, autoclaved then VIS 72 h) was 0.0646 wt % and the “Iodide Formed, UV” value ([2]; Ioversol 160 mg I/mL, pH 7.1, no SCD (1:0), autoclaved then UV 24 h) was 0.225 wt %. For the same molecule, the “Iodide Formed, VIS” value ([2]; Ioversol 160 mg I/mL, pH 7.1, no SCD (1:0), autoclaved then VIS 72 h) was 0.0717 wt %, the “Iodide Formed, UV” value ([2]; Ioversol 240 mg I/mL, pH 7.1, agent:SBE7CD 1:0.05, autoclaved then UV 24 h) was 0.126 wt % and the “Iodide Formed, VIS” value ([2]; Ioversol 240 mg I/mL, pH 7.1, agent:SBE7CD 1:0.05, autoclaved then VIS 72 h) was 0.0400 wt %. The “Iodide Formed, UV” value ([2]; Ioversol 240 mg I/mL, pH 7.1, no SCD (1:0), autoclaved then UV 24 h) was 0.156 wt %, the “Iodide Formed, VIS” value ([2]; Ioversol 240 mg I/mL, pH 7.1, no SCD (1:0), autoclaved then VIS 72 h) was 0.0454 wt % and the “Iodide Formed, UV” value ([2]; Ioversol 300 mg I/mL, pH 7.1, agent:SBE7CD 1:0.05, autoclaved then UV 24 h) was 0.111 wt %. The “Iodide Formed, VIS” value ([2]; Ioversol 300 mg I/mL, pH 7.1, agent:SBE7CD 1:0.05, autoclaved then VIS 72 h) was 0.0298 wt %, the “Iodide Formed, UV” value ([2]; Ioversol 300 mg I/mL, pH 7.1, no SCD (1:0), autoclaved then UV 24 h) was 0.134 wt % and the “Iodide Formed, VIS” value ([2]; Ioversol 300 mg I/mL, pH 7.1, no SCD (1:0), autoclaved then VIS 72 h) was 0.0361 wt %. The “Iodide Formed, UV” value ([2]; Ioversol 320 mg I/mL, pH 7.1, agent:SBE7CD 1:0.05, autoclaved then UV 24 h) was 0.0778 wt %, the “Iodide Formed, VIS” value ([2]; Ioversol 320 mg I/mL, pH 7.1, agent:SBE7CD 1:0.05, autoclaved then VIS 72 h) was 0.0277 wt % and the “Iodide Formed, UV” value ([2]; Ioversol 320 mg I/mL, pH 7.1, no SCD (1:0), autoclaved then UV 24 h) was 0.123 wt %. For the same molecule, the “Iodide Formed, VIS” value ([2]; Ioversol 320 mg I/mL, pH 7.1, no SCD (1:0), autoclaved then VIS 72 h) was 0.0323 wt %, the “Iodide Formed, UV” value ([2]; Ioversol 350 mg I/mL, pH 7.1, agent:SBE7CD 1:0.05, autoclaved then UV 24 h) was 0.0864 wt % and the “Iodide Formed, VIS” value ([2]; Ioversol 350 mg I/mL, pH 7.1, agent:SBE7CD 1:0.05, autoclaved then VIS 72 h) was 0.0250 wt %. The “Iodide Formed, UV” value ([2]; Ioversol 350 mg I/mL, pH 7.1, no SCD (1:0), autoclaved then UV 24 h) was 0.118 wt % and the “Iodide Formed, VIS” value ([2]; Ioversol 350 mg I/mL, pH 7.1, no SCD (1:0), autoclaved then VIS 72 h) was 0.0283 wt %.
